pIC50: −log10 of the molar value.
Target: T1, human neutrophil elastase (HNE) (Homo sapiens, UniProt P08246)
T1 construct: purchased Sigma E8140
T1 sequence (P08246 30-267): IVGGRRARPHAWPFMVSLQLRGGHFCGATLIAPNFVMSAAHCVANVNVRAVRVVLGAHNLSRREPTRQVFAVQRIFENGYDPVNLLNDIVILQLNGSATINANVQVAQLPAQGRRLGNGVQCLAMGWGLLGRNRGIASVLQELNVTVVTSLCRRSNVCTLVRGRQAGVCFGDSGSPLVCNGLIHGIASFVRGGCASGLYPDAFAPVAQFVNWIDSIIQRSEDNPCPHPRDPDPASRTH
Assay: HNE enzyme assay (human neutrophil elastase enzyme activity, fluorogenic peptide substrate)
Format: biochemical
Conditions: human leukocyte elastase 0.00072 U/mL; MeOSuc-Ala-Ala-Pro-Val-AMC 100 μM; 25° C., 30 minutes; at least two separate experiments; read-out: HNE inhibition (IC50 values)
Experimental: Compounds of this invention were tested for potency in a human neutrophil elastase (HNE) enzyme activity assay.
Assays were performed in 96-well plates in a total assay volume of 100 μL. The final concentration of elastase enzyme (human leukocyte elastase, Sigma E8140) was 0.00072 U/mL. The peptide substrate (MeOSuc-Ala-Ala-Pro-Val-AMC, Calbiochem #324740) was used at a final concentration of 100 μM. The final concentration of DMSO was 1% in the assay buffer (0.05M Tris.HCl, 0.1M NaCl, 0.1M CaCl2, 0.0005% brij-35, pH 7.5). The enzymatic reaction was started by addition of the enzyme and incubated at 25° C. for 30 minutes. After incubation, the reaction was stopped by addition of soybean trypsin inhibitor (Sigma T9003) at a final concentration of 50 μg/well. Fluorescence was measured using a Molecular Devices fluorescence plate reader using 380 nm excitation and 460 nm emission wavelengths.
A dose response to each compound was performed and the effect of the compound in each experiment was expressed as a percentage inhibition of the control enzyme fluorescence. Dose response curves were plotted and compound potency (IC50) was determined. Compounds were tested in at least two separate experiments.

## CC1=C(C#N)[C@@H](c2ccc(C#N)cc2C(O)CO)n2c(n[nH]c2=O)N1c1cccc(C(F)F)c1 (mixture of isomers) [Example 39d, (R) and (S)-5-[4-Cyano-2-(1,2-dihydroxy-ethyl)-phenyl]-8-(3-difluoromethyl-phenyl)-7-methyl-3-oxo-2,3,5,8-tetrahydro-[1,2,4]triazolo[4,3-a]pyrimidine-6-carbonitrile]
  pIC50: 7.00 to 7.70

## CC1=C(C#N)[C@@H](c2ccc(C#N)cc2CCO)n2c(n[nH]c2=O)N1c1cccc(C(F)(F)F)c1 [Example 36, (R)-5-[4-Cyano-2-(2-hydroxy-ethyl)-phenyl]-7-methyl-3-oxo-8-(3-trifluoromethyl-phenyl)-2,3,5,8-tetrahydro-[1,2,4]triazolo[4,3-a]pyrimidine-6-carbonitrile]
  pIC50: > 7.70

## CC1=C(C#N)[C@@H](c2ccc(C#N)cc2C(O)CO)n2c(n[nH]c2=O)N1c1cccc(C(F)F)c1 (single isomer, unassigned) [Example 39a]
  pIC50: > 7.70

## CC1=C(C#N)[C@@H](c2ccc(C#N)cc2CCO)n2c(n[nH]c2=O)N1c1cccc(C(F)F)c1 (single isomer, unassigned) [Example 38a]
  pIC50: > 7.70

## COCCOc1cc(C#N)ccc1[C@@H]1C(C(=O)OC)=C(C)N(c2cccc(C(F)(F)F)c2)c2n[nH]c(=O)n21 (single isomer, unassigned) [Example 34a]
  pIC50: > 7.70

## CC1=C(C#N)[C@@H](c2ccc(C#N)cc2C(O)CO)n2c(n[nH]c2=O)N1c1cccc(C(F)(F)F)c1 (single isomer, unassigned) [Example 35a]
  pIC50: > 7.70

## CC1=C(C#N)C(c2ccc(C#N)cc2C(O)CO)n2c(n[nH]c2=O)N1c1cccc(C(F)F)c1 (single isomer, unassigned) [Example 39b]
  pIC50: 6.30 to 7.00

## COCCOc1cc(C#N)ccc1[C@@H]1C(C(=O)OC)=C(C)N(c2cccc(C(F)(F)F)c2)c2n[nH]c(=O)n21 (single isomer, unassigned) [Example 34b]
  pIC50: 7.00 to 7.70

## CC1=C(C#N)[C@@H](c2ccc(C#N)cc2CCS(C)(=O)=O)n2c(n[nH]c2=O)N1c1cccc(C(F)(F)F)c1 [Example 37, (R)-5-[4-Cyano-2-(2-methanesulfonyl-ethyl)-phenyl]-7-methyl-3-oxo-8-(3-trifluoromethyl-phenyl)-2,3,5,8-tetrahydro-[1,2,4]triazolo[4,3-a]pyrimidine-6-carbonitrile]
  pIC50: > 7.70

## CC1=C(C#N)[C@@H](c2ccc(C#N)cc2CCO)n2c(n[nH]c2=O)N1c1cccc(C(F)F)c1 (single isomer, unassigned) [Example 38b]
  pIC50: 6.30 to 7.00

## COC(=O)C1=C(C)N(c2cccc(C(F)(F)F)c2)c2n[nH]c(=O)n2[C@H]1c1ccc(C#N)cc1OC (racemic) [Example 33b]
  pIC50: 7.00 to 7.70
